# Assay results from patent publication US9173898B2, “Methods of treating giardiasis” (THE UNITED STATES OF AMERICA, as represented by the …, priority 2010, dated 2015).
# Test system: Giardia WB
# Assay: Giardia viability (ATP content) assay in 1536-well format
# Format: cell-based, Giardia lamblia
# Conditions: Giardia, 100 cells/well Giardia density, 1536-well (FIG. 2a); read-out: Calculated EC50
# Experimental: (§1) For the viability assay in 1536-well format, 2 μL media was dispensed per well into 1536-well white solid-bottom plates using a Multidrop Combi dispenser (Thermo Scientific). Subsequently, 23 nL/well compound solutions or DMSO controls were dispensed to the assay plates containing media via a pintool workstation (Kalypsys, San Diego). Trophozoites were chilled on ice to detach from glass tubes, and unless otherwise noted, were diluted to 250,000 trophozoites/mL with ice cold media. The trophozoite suspension was kept on ice and dispensed as 4 μL/well with the Multidrop Combi dispenser. Attachment of trophozoites to dispensing apparatus was avoided with continuous dispensing and icing of the trophozoite suspension. The plates were covered with plastic low-evaporation lids, individually sealed in Type A Bio-Bags and incubated at 37° C. for 48 hours. Following incubation, 4 μL/well of ATPLite reagent was dispensed with the Multidrop Combi dispenser. The assay plates were briefly centrifuged at 1000 RPM and luminescence signal was detected on a ViewLux plate reader (PerkinElmer) after 20 min incubation at room temperature. Signal-to-basal (S/B) ratio, Z′ factor and coefficient of variation (CV) were calculated from 32 wells with 0.38% DMSO (total signal) and 32 well with 38.3 μM Mnz (basal signal).
# Assay miniaturization in 1,536-well plate format was undertaken to increase throughput and facilitate screening of large compound libraries. The volume of trophozoites suspension was reduced to 6 μL/well and the ATP detection reagent was reduced to 4 μL/well in the 1536-well assay plates. […] The 100 trophozoites/well density was selected for further experiments to reduce the preparation work of Giardia cultures. Following these conditions, a DMSO test plate was used to assess the statistical parameters of the assay in the 1,536-well plate format.
# Using the above established conditions in 1536-well format, each compound of the invention was tested at 5 concentration points, ranging from 61 nM-38.3 μM in a 1:5 dilution ratio (Inglese, J., D. S. Auld, A. Jadhav, R. L. Johnson, A. Simeonov, A. Yasgar, W. Zheng, and C. P. Austin. 2006. Quantitative high-throughput screening: a titration-based approach that efficiently identifies biological activities in large chemical libraries. Proc Natl Acad Sci USA 103:11473-8).
row,Compound,EC50
1,Cc1ncc([N+](=O)[O-])n1CCO [Metronidazole],2900 nM

# Same assay, conditions: Giardia, 200 cells/well Giardia density, 1536-well (FIG. 2a); read-out: Calculated EC50
row,Compound,EC50
1,Cc1ncc([N+](=O)[O-])n1CCO [Metronidazole],2900 nM

# Same assay, conditions: Giardia, 300 cells/well Giardia density, 1536-well (FIG. 2a); read-out: Calculated EC50
row,Compound,EC50
1,Cc1ncc([N+](=O)[O-])n1CCO [Metronidazole],2100 nM

# Same assay, conditions: Giardia, 48 h; percent reduction in ATP levels compared with 38.3 mM Mnz at maximal compound concentration; read-out: Giardia WB Efficacy
row,Compound,Emax
1,COC(=O)N/N=C/c1c[n+]([O-])c2ccccc2[n+]1[O-] [Carbadox],86.6%
2,"Nc1ncn([C@H]2C[C@H](O)[C@@H](CO)O2)c(=O)n1 [Decitabine, 5-Aza-2′-deoxycytidine]",81.2%
3,CO[C@@H]1[C@H](OC(=O)/C=C/C=C/C=C/C=C/C(=O)O)CC[C@]2(CO2)[C@H]1[C@@]1(C)O[C@@H]1CC=C(C)C [Fumagillin],83.4%

# Same assay, conditions: Giardia; concentration at which 50% of DMSO control ATP levels are detected; 48 hours, 1536-well
row,Compound,IC50
1,COC(=O)N/N=C/c1c[n+]([O-])c2ccccc2[n+]1[O-] [Carbadox],5460 nM
2,"Nc1ncn([C@H]2C[C@H](O)[C@@H](CO)O2)c(=O)n1 [Decitabine, 5-Aza-2′-deoxycytidine]",970 nM
3,CO[C@@H]1[C@H](OC(=O)/C=C/C=C/C=C/C=C/C(=O)O)CC[C@]2(CO2)[C@H]1[C@@]1(C)O[C@@H]1CC=C(C)C [Fumagillin],10 nM

# Test system: CHO cells
# Assay: CHO cell cytotoxicity assay in 1536-well format (ATP content counter-screen)
# Format: cell-based, Chinese hamster
# Conditions: Cricetulus griseus, CHO; concentration at which 50% of DMSO control ATP levels are detected; 48 hours
# Experimental: For the viability assay in 1536-well format, 2 μL media was dispensed per well into 1536-well white solid-bottom plates using Multidrop Combi dispenser. Subsequently, 23 nL/well compound solutions or DMSO controls were dispensed to the assay plates via a pintool workstation. The Chinese hamster ovary (CHO) cells were grown in T225 flasks to 70% confluence under a standard cell culture condition (ATCC), detached with 0.25% Trypsin/EDTA, and seeded at 250 cells/well in 4 μL media (Dulbecco's Modified Eagle Medium, 10% fetal bovine serum, 1× penicillin/streptomycin). The plates were incubated at 37° C. with 5% CO2 and 95% humidity for 48 hours. Subsequently, ATP content was measured following the addition of 4 μL/well of ATPLite reagent and a 20 min incubation on a ViewLux plate reader.
# Data from the CHO cell counter-screen underwent the same initial analysis, with the exception that raw luminescence counts were normalized relative to DMSO only wells (0% activity) and 38.3 μM camptothecin treated wells (100% activity).
# CHO cells, commonly used in high throughput compound screening, were selected to determine the cytotoxicity of the compounds towards a mammalian cell line.
row,Compound,IC50
1,COC(=O)N/N=C/c1c[n+]([O-])c2ccccc2[n+]1[O-] [Carbadox],> 100 µM
2,"Nc1ncn([C@H]2C[C@H](O)[C@@H](CO)O2)c(=O)n1 [Decitabine, 5-Aza-2′-deoxycytidine]",24.4 µM
3,CO[C@@H]1[C@H](OC(=O)/C=C/C=C/C=C/C=C/C(=O)O)CC[C@]2(CO2)[C@H]1[C@@]1(C)O[C@@H]1CC=C(C)C [Fumagillin],> 100 µM

# Test system: G. lamblia WB trophozoite
# Assay: Giardia viability (ATP content) assay in 96-well format
# Format: cell-based, Giardia lamblia
# Conditions: 41.7 μM Mnz treatment, all time points tested (FIG. 1a)
# Experimental: Giardia trophozoites were plated at a density of 2500 cells/well in 120 μL media in sterile 96-well black clear-bottom assay plates. Mnz was serially diluted from 100 mM stock solution 1:4 in DMSO and then 0.5 μL/well of Mnz titrations or DMSO control were transferred in duplicates to the assay wells using a multichannel pipette. The assay plates were covered with plastic low-evaporation lids and individually sealed with anaerobic generators (Type A Bio-Bag, BD Diagnostics) to create anaerobic growth environment. The sealed Bio-Bags were incubated at 37° C. for indicated periods. Following incubation, 80 μL/well of the ATPLite reagent (PerkinElmer) was added to the assay plates for one-step lysis and ATP level detection. The plates were centrifuged briefly (1000 RPM, 30 seconds) and incubated at room temperature for 20 min. The luminescent signals of assay plates were measured on a ViewLux plate reader (PerkinElmer). Signal-to-basal (S/B) ratios and Z′ factors were calculated from 8 wells containing 0.42% DMSO (total signal) and 8 wells containing 41.7 μM Mnz (basal signal).
# A commercially available ATP detection kit to measure the viability of G. lamblia after compound treatment. […] The DMSO tolerance of trophozoites was assessed in this assay as DMSO is used to dissolve the compounds in the library. […]
row,Compound,ATP content relative to DMSO control values
1,Cc1ncc([N+](=O)[O-])n1CCO [Metronidazole],< 5%

# Same assay, conditions: Giardia duodenalis; 96-well format, 48 hr (FIG. 1c); read-out: IC50 of inhibition of the ATP content signal
row,IC50,Compound
1,2100 nM,Cc1ncc([N+](=O)[O-])n1CCO [Metronidazole]

# Test system: G. lamblia GS isolate
# Assay: ATP content assay against G. lamblia GS isolate
# Format: cell-based, Giardia lamblia
# Conditions: G. lamblia GS isolate; purchased powder samples
# Experimental: as §1
# As a further confirmatory step, some compounds that were commercially available were purchased as powder samples and tested against the G. lamblia GS isolate using both the ATP content and enumeration assays (Table 3).
row,Compound,ATP Content Efficacy
1,COC(=O)N/N=C/c1c[n+]([O-])c2ccccc2[n+]1[O-] [Carbadox],99.4%
2,"Nc1ncn([C@H]2C[C@H](O)[C@@H](CO)O2)c(=O)n1 [Decitabine, 5-Aza-2′-deoxycytidine]",95.1%
3,CO[C@@H]1[C@H](OC(=O)/C=C/C=C/C=C/C=C/C(=O)O)CC[C@]2(CO2)[C@H]1[C@@]1(C)O[C@@H]1CC=C(C)C [Fumagillin],98.9%
4,Cc1ncc([N+](=O)[O-])n1CCO [Metronidazole],99.7%

# Same assay, conditions: Giardia duodenalis; G. lamblia GS isolate; purchased powder samples; read-out: ATP Content IC50
row,IC50,Compound
1,240 nM,COC(=O)N/N=C/c1c[n+]([O-])c2ccccc2[n+]1[O-] [Carbadox]
2,150 nM,"Nc1ncn([C@H]2C[C@H](O)[C@@H](CO)O2)c(=O)n1 [Decitabine, 5-Aza-2′-deoxycytidine]"
3,1600 nM,Cc1ncc([N+](=O)[O-])n1CCO [Metronidazole]

row,Compound,IC50
1,CO[C@@H]1[C@H](OC(=O)/C=C/C=C/C=C/C=C/C(=O)O)CC[C@]2(CO2)[C@H]1[C@@]1(C)O[C@@H]1CC=C(C)C [Fumagillin],2 nM

# Same assay, conditions: Giardia duodenalis; Table 2, screen; read-out: Giardia GS IC50
row,IC50,Compound
1,2830 nM,COC(=O)N/N=C/c1c[n+]([O-])c2ccccc2[n+]1[O-] [Carbadox]
2,100 nM,"Nc1ncn([C@H]2C[C@H](O)[C@@H](CO)O2)c(=O)n1 [Decitabine, 5-Aza-2′-deoxycytidine]"

row,Compound,IC50
1,CO[C@@H]1[C@H](OC(=O)/C=C/C=C/C=C/C=C/C(=O)O)CC[C@]2(CO2)[C@H]1[C@@]1(C)O[C@@H]1CC=C(C)C [Fumagillin],2 nM

# Test system: Giardia lamblia GS isolate
# Assay: Trophozoite enumeration assay
# Format: cell-based
# Conditions: Giardia duodenalis; G. lamblia GS isolate; 48 hrs, cell counting in hemocytometer
# Experimental: Giardia lamblia GS isolate was plated into sterile 96-well black clear-bottom assay plates at 10,000 cells/well density and 120 μL/well volume in culture media. Compounds tested were prepared as 50 mM DMSO solutions in a 12 point 1:3 titration series in DMSO, with exceptions being carbadox, Bortezomib and BTO-1, which were used at 10 mM top concentration due to solubility limitations. Compound titration series were added to duplicate assay wells as 0.5 μL/well and the assay plates were incubated anaerobically in Type A Bio-Bag (BD Diagnostics) for 48 hrs at 37° C. Cell density was visually scored in each well and the 6 wells surrounding the visually determined IC50 concentrations were quantitated by cell counting. For enumeration, trophozoites were detached on ice for 30 min and resuspended via pipetting. 75 μL of culture was removed from each well, mixed with 65 μL of 0.4% Trypan Blue and 10 μL of 30% bleach (final concentration of 2% bleach) to immobilize trophozoites. Trophozoites were then counted in a hemocytometer.
row,IC50,Compound
1,290 nM,COC(=O)N/N=C/c1c[n+]([O-])c2ccccc2[n+]1[O-] [Carbadox]
2,70 nM,"Nc1ncn([C@H]2C[C@H](O)[C@@H](CO)O2)c(=O)n1 [Decitabine, 5-Aza-2′-deoxycytidine]"
3,2200 nM,Cc1ncc([N+](=O)[O-])n1CCO [Metronidazole]

row,Compound,IC50
1,CO[C@@H]1[C@H](OC(=O)/C=C/C=C/C=C/C=C/C(=O)O)CC[C@]2(CO2)[C@H]1[C@@]1(C)O[C@@H]1CC=C(C)C [Fumagillin],3 nM

# Test system: Giardia lamblia GS isolate
# Assay: Minimum Lethal Concentration (MLC) determination
# Format: cell-based
# Conditions: Giardia duodenalis, 72 h; 3 days with compound, then 3 days regrowth without compound; tube without any live organisms
# Experimental: Giardia lamblia GS isolate was used throughout the Minimal Lethal Concentration (MLC) experiments. Organisms were grown and maintained in TYI-S-33 medium supplemented with bile and antibiotics (Keister, 1983). Cidal activity was determined in 96-well culture plates (Corning Incorporated) followed by Giardia trophozoites regrowth in 8 ml tubes (Fisher Scientific). Dry compounds were dissolved in DMSO (Sigma) at stock concentration of 10 mM and then added to the growth media to ensure final DMSO concentration of no more than 0.5%. 100 μl of the compound solutions were placed in the wells by serial dilutions. 10 μl of Giardia trophozoites containing 10000 organisms were then added. Serial dilutions of metronidazole served as the positive control and the DMSO-containing medium served as the negative control. Plates were incubated under anaerobic conditions in sealed bags (Becton Dickinson and Company) at 37° C. for 3 days and surveyed visually under microscope to check survival, mobility and attachment of trophozoites. The plate was chilled on ice for 30 min and the entire contents of 4 wells in the growth/death transition were transferred into the 8 ml tubes containing growth media only (without the compound). After 3 days of incubation at 37° C., tubes were checked under microscope for any surviving trophozoites. MLC was attributed to the tube without any live organisms. See, e.g., Keister, D. B. 1983. Axenic culture of Giardia lamblia in TYI-S-33 medium supplemented with bile. Trans. Soc. Trop. Med. Hyg. 77:487-488.
row,Compound,MBC
1,COC(=O)N/N=C/c1c[n+]([O-])c2ccccc2[n+]1[O-] [Carbadox],4.6 µM
2,"Nc1ncn([C@H]2C[C@H](O)[C@@H](CO)O2)c(=O)n1 [Decitabine, 5-Aza-2′-deoxycytidine]",2.6 µM
3,CO[C@@H]1[C@H](OC(=O)/C=C/C=C/C=C/C=C/C(=O)O)CC[C@]2(CO2)[C@H]1[C@@]1(C)O[C@@H]1CC=C(C)C [Fumagillin],0.257 µM
4,Cc1ncc([N+](=O)[O-])n1CCO [Metronidazole],7.7 µM

# Test system: CHO cells
# Assay: CHO cell cytotoxicity assay in 1536-well format (ATP content counter-screen)
# Format: cell-based, Chinese hamster
# Conditions: Cricetulus griseus, CHO, 48 h; percent reduction in ATP levels compared with 38.3 µM camptothecin at maximal compound concentration; read-out: CHO Efficacy
row,Compound,Emax
1,COC(=O)N/N=C/c1c[n+]([O-])c2ccccc2[n+]1[O-] [Carbadox],6.3%
2,"Nc1ncn([C@H]2C[C@H](O)[C@@H](CO)O2)c(=O)n1 [Decitabine, 5-Aza-2′-deoxycytidine]",-52.2%
3,CO[C@@H]1[C@H](OC(=O)/C=C/C=C/C=C/C=C/C(=O)O)CC[C@]2(CO2)[C@H]1[C@@]1(C)O[C@@H]1CC=C(C)C [Fumagillin],-1.9%
